Data set [1] is described as follows: Solubility test, equilibrium method, UV-visible spectrophotometry. Type of data set: physicochemical. The following applies: thermodynamic from solid. As for the experimental part: The solubility test is carried out by equilibrium method. […] An appropriate amount of the compound is weighed and dissolved in 1 mL of methanol solution to prepare a control solution with a certain concentration (C0). The concentration of test solution is calculated according to the following formula: Cx=(Ax/A0)C0, wherein Cx is concentration of test solution, Ax is absorbance of test solution, C0 is concentration of control solution, and A0 is absorbance of control solution.

Data set [2] deals with SW-480. The data set is described as follows: Cytotoxicity test (MTT, 72 h). The conditions noted are these: Homo sapiens, SW480, 72 h, read-out: 50% Inhibiting Concentration value (IC50).
Procedure: (§1) Cells at logarithmic growth period are inoculated in a 96-well plate overnight, then drugs with a certain gradient concentrations are added, and incubation is carried out in a cell culture chamber (5% CO2, 37° C.) for 72 h.
Data set [3] relates to HT-29. Nature of the data set: Cytotoxicity test (MTT, 72 h). The conditions noted are these: Homo sapiens, HT-29, 72 h, read-out: 50% Inhibiting Concentration value (IC50).
Procedure: as §1
The subject of data set [4] is HCT-116. Nature of the data set: Cytotoxicity test (MTT, 72 h). The following applies: Homo sapiens, HCT-116, 72 h, read-out: 50% Inhibiting Concentration value (IC50).
Procedure: (§2) In order to investigate the antitumor activities of the compounds, a variety of tumor cell lines for test are selected. Cells at logarithmic growth period are inoculated in a 96-well plate overnight, then drugs with a certain gradient concentrations are added, and incubation is carried out in a cell culture chamber (5% CO2, 37° C.) for 72 h.
Data set [5] concerns A549. The data set is described as follows: Cytotoxicity test (MTT, 72 h). The following applies: Homo sapiens, A549, 72 h, read-out: 50% Inhibiting Concentration value (IC50).
Procedure: as §2
Data set [6] relates to H1975. The data set is described as follows: Cytotoxicity test (MTT, 72 h). The conditions noted are these: Homo sapiens, NCI-H1975, 72 h, read-out: 50% Inhibiting Concentration value (IC50).
Procedure: as §2
Data set [7] relates to HepG2. Nature of the data set: Cytotoxicity test (MTT, 72 h). The conditions noted are these: Homo sapiens, HepG2, 72 h, read-out: 50% Inhibiting Concentration value (IC50).
Procedure: as §2
The test system of data set [8] is BGC-823. Nature of the data set: Cytotoxicity test (MTT, 72 h). The conditions noted are these: Homo sapiens, BGC-823, 72 h, read-out: 50% Inhibiting Concentration value (IC50).
Procedure: as §2
Data set [9] deals with ECA-109. The data set is described as follows: Cytotoxicity test (MTT, 72 h). The following applies: Homo sapiens, ECa-109, 72 h, read-out: 50% Inhibiting Concentration value (IC50).
Procedure: as §2
Data set [10] deals with K562. The data set is described as follows: Cytotoxicity test (MTT, 72 h). The conditions noted are these: Homo sapiens, K562, 72 h, read-out: 50% Inhibiting Concentration value (IC50).
Procedure: as §2
Data set [11] relates to PC3. The data set is described as follows: Cytotoxicity test (MTT, 72 h). The following applies: Homo sapiens, PC-3, 72 h, read-out: 50% Inhibiting Concentration value (IC50).
Procedure: as §2
The test system of data set [12] is 143B. The data set is described as follows: Cytotoxicity test (MTT, 72 h). The conditions noted are these: Homo sapiens, read-out: 50% Inhibiting Concentration value (IC50).
Procedure: as §2
Data set [13] has as its system MDA-MB-231. Nature of the data set: Cytotoxicity test (MTT, 72 h). The following applies: Homo sapiens, MDA-MB-231, 72 h, read-out: 50% Inhibiting Concentration value (IC50).
Procedure: as §2
Data set [14] concerns Hela. Nature of the data set: Cytotoxicity test (MTT, 72 h). The following applies: Homo sapiens, read-out: 50% Inhibiting Concentration value (IC50).
Procedure: as §2
Data set [15] has as its system TPC-1. The data set is described as follows: Cytotoxicity test (MTT, 72 h). The conditions noted are these: Homo sapiens, TPC1, 72 h, read-out: 50% Inhibiting Concentration value (IC50).
Procedure: as §1
The test system of data set [16] is SKOV-3. Nature of the data set: Cytotoxicity test (MTT, 72 h). The following applies: Homo sapiens, SK-OV-3, 72 h, read-out: 50% Inhibiting Concentration value (IC50).
Procedure: as §1
Data set [17] concerns PANC-1. Nature of the data set: Cytotoxicity test (MTT, 72 h). The conditions noted are these: Homo sapiens, PANC-1, 72 h, read-out: 50% Inhibiting Concentration value (IC50).
Procedure: as §1
Setting [18] is: aqueous with cosolvent or surfactant or cyclodextrin.

In brackets after ≈: the same amount, converted by molar mass.

In the case of `CCc1c2c(nc3ccc(OC(=O)OCCOCc4cn([C@H]5O[C@@H](CO)[C@H](O)[C@@H](O)[C@@H]5O)nn4)cc13)-c1cc3c(c(=O)n1C2)COC(=O)[C@]3(O)CC` [Compound 37], the solubility in [1] (setting [18]) stood at 360 µg/mL (≈ 497 µM); in data set [1] (pH 7.4, aqueous buffer) it was 54.4 µg/mL (≈ 75.2 µM); in [1] (saline or isotonic), 725 µg/mL (≈ 1000 µM); in [1] (water), 159 µg/mL (≈ 220 µM). Also, the IC50 was 0.014 µM in data set [2]; 1.94 µM in data set [3]; 2.34 µM in data set [4]; 13.1 µM in data set [5]; 21.1 µM in data set [6]; 2.19 µM in data set [7]. Further, the IC50 was found to be 1.25 µM in data set [8]; 1.62 µM in data set [9]; 1.95 µM in data set [10]; 10.9 µM in [11]; 17.6 µM in data set [12]; 1.82 µM in [13]. Besides, the IC50 was 12.7 µM in [14], 18.3 µM in data set [15], 2.63 µM in data set [16] and 13.7 µM in [17].

In the case of `CCc1c2c(nc3ccc(OC(=O)OCCOCCOCCOCCOCc4cn([C@H]5O[C@@H](CO)[C@H](O)[C@@H](O)[C@@H]5O)nn4)cc13)-c1cc3c(c(=O)n1C2)COC(=O)[C@]3(O)CC` [Compound 42], the solubility in data set [1] (setting [18]) is 120 µg/mL (≈ 140 µM); in data set [1] (pH 7.4, aqueous buffer), 85.2 µg/mL (≈ 99.6 µM); in [1] (saline or isotonic) it was 5870 µg/mL (≈ 6860 µM); in data set [1] (water) it was 162 µg/mL (≈ 189 µM). Also, the IC50 in data set [2] amounted to 0.167 µM; in [3], 13.5 µM; in data set [4], 3.01 µM; in [5] it was 5.73 µM; in data set [6] it was 12.8 µM; in [7] it was 0.174 µM. In addition, the IC50 in data set [8] amounted to 0.139 µM; in [9] it was 11.3 µM; in data set [10] it was 2.5 µM; in [11], 4.77 µM; in data set [12] it was 10.6 µM; in data set [13], 0.145 µM. In addition, the IC50 turned out to be 6.87 µM in [14], 15.3 µM in [15], 0.209 µM in data set [16] and 6.87 µM in data set [17].

`CCc1c2c(nc3ccc(OC(=O)OCCOCCOCc4cn([C@H]5O[C@@H](CO)[C@H](O)[C@@H](O)[C@@H]5O)nn4)cc13)-c1cc3c(c(=O)n1C2)COC(=O)[C@]3(O)CC` [Compound 47]: the solubility came out at 650 µg/mL (≈ 846 µM) in [1] (setting [18]); 60.8 µg/mL (≈ 79.2 µM) in data set [1] (pH 7.4, aqueous buffer); 511 µg/mL (≈ 665 µM) in data set [1] (saline or isotonic); 109 µg/mL (≈ 142 µM) in data set [1] (water). Also, the IC50 in [2] amounted to 0.274 µM; in data set [3], 0.694 µM; in data set [4] it was 0.273 µM; in [5], 2.95 µM; in data set [6] it was 10.8 µM; in [7] it was 2.74 µM. Also, the IC50 in [8] worked out at 0.228 µM; in data set [9], 0.578 µM; in [10] it was 0.228 µM; in data set [11] it was 2.46 µM; in [12], 8.96 µM; in data set [13], 2.28 µM. The IC50 in data set [14] worked out at 3.54 µM; in data set [15], 12.9 µM; in data set [16] it was 3.29 µM; in data set [17], 3.54 µM.

In the case of `CCc1c2c(nc3ccc(OC(=O)OCCOCCOCCOCc4cn([C@H]5O[C@@H](CO)[C@H](O)[C@@H](O)[C@@H]5O)nn4)cc13)-c1cc3c(c(=O)n1C2)COC(=O)[C@]3(O)CC` [Compound 52], the solubility in data set [1] (setting [18]) amounted to 320 µg/mL (≈ 394 µM); in data set [1] (pH 7.4, aqueous buffer), 85.2 µg/mL (≈ 105 µM); in data set [1] (saline or isotonic), 446 µg/mL (≈ 549 µM); in data set [1] (water), 3050 µg/mL (≈ 3750 µM). Moreover, the IC50 in data set [2] came out at 0.167 µM; in [3], 0.859 µM; in [4], 0.527 µM; in [5], 11.1 µM; in [6], 21.8 µM; in [7], 8.22 µM. For the same compound, the IC50 in data set [8] was found to be 0.139 µM; in data set [9], 0.716 µM; in data set [10], 0.439 µM; in data set [11] it was 9.26 µM; in data set [12] it was 18.1 µM; in data set [13], 6.85 µM. Also, the IC50 in data set [14] amounted to 13.3 µM; in [15] it was 26.1 µM; in data set [16] it was 9.86 µM; in data set [17], 13.3 µM.

With `CCc1c2c(nc3ccc(OC(=O)OCCOCc4cn(CCO[C@H]5O[C@@H](CO)[C@H](O)[C@@H](O)[C@@H]5O)nn4)cc13)-c1cc3c(c(=O)n1C2)COC(=O)[C@]3(O)CC` [Compound 56], the solubility stood at 2180 µg/mL (≈ 2830 µM) in data set [1] (setting [18]); 85.2 µg/mL (≈ 111 µM) in data set [1] (pH 7.4, aqueous buffer); 1110 µg/mL (≈ 1440 µM) in [1] (saline or isotonic); 636 µg/mL (≈ 828 µM) in data set [1] (water). The IC50 in [2] came out at 0.112 µM; in data set [3] it was 9.39 µM; in [4] it was 0.137 µM; in data set [5], 4.7 µM; in data set [6], 8.25 µM; in data set [7], 10.2 µM. The IC50 was determined as 0.093 µM in data set [8]; 7.83 µM in [9]; 0.114 µM in [10]; 3.91 µM in data set [11]; 6.88 µM in [12]; 8.53 µM in data set [13]. For the same compound, the IC50 in data set [14] is 5.63 µM; in data set [15] it was 9.9 µM; in [16], 12.3 µM; in [17], 5.63 µM.

For `CCc1c2c(nc3ccc(OC(=O)OCCOCCOCc4cn(CCO[C@H]5O[C@@H](CO)[C@H](O)[C@@H](O)[C@@H]5O)nn4)cc13)-c1cc3c(c(=O)n1C2)COC(=O)[C@]3(O)CC` [Compound 57], the solubility is 6460 µg/mL (≈ 7950 µM) in data set [1] (setting [18]); 361 µg/mL (≈ 444 µM) in data set [1] (pH 7.4, aqueous buffer); 4290 µg/mL (≈ 5290 µM) in [1] (saline or isotonic); 178 µg/mL (≈ 219 µM) in data set [1] (water). Further, the IC50 was found to be 0.164 µM in data set [2]; 1.68 µM in data set [3]; 1.39 µM in data set [4]; 20.9 µM in data set [5]; 12.1 µM in data set [6]; 5.15 µM in [7]. For the same compound, the IC50 came to 0.137 µM in data set [8]; 1.4 µM in data set [9]; 1.16 µM in data set [10]; 17.4 µM in [11]; 10.1 µM in [12]; 4.29 µM in data set [13]. The IC50 in [14] turned out to be 15.1 µM; in data set [15], 14.6 µM; in data set [16] it was 6.17 µM; in data set [17], 22.1 µM.

Regarding `CCc1c2c(nc3ccc(OC(=O)OCCOCCOCCOCCOCc4cn(CCO[C@H]5O[C@@H](CO)[C@H](O)[C@@H](O)[C@@H]5O)nn4)cc13)-c1cc3c(c(=O)n1C2)COC(=O)[C@]3(O)CC` [Compound 59], the solubility in data set [1] (setting [18]) came to 1200 µg/mL (≈ 1340 µM); in data set [1] (pH 7.4, aqueous buffer), 984 µg/mL (≈ 1090 µM); in data set [1] (saline or isotonic), 854 µg/mL (≈ 949 µM); in [1] (water), 1480 µg/mL (≈ 1650 µM). Besides, the IC50 in data set [2] was 1.21 µM; in [3], 1.13 µM; in [4], 1.67 µM; in data set [5] it was 8.03 µM; in data set [6] it was 10.5 µM; in data set [7], 2.73 µM. In addition, the IC50 in data set [8] was 1.01 µM; in data set [9], 0.939 µM; in [10] it was 1.39 µM; in data set [11] it was 6.69 µM; in [12], 8.77 µM; in data set [13], 2.28 µM. Moreover, the IC50 in data set [14] was determined as 9.64 µM; in data set [15], 12.6 µM; in data set [16], 3.28 µM; in [17], 9.64 µM.

One may read the solubility as how much of the substance goes into solution per volume.

(Values after patent US20210246157A1, “CAMPTOTHECIN DERIVATIVES AND PREPARATION METHODS AND APPLICATIONS THEREOF” (priority 2018, published 2021).)
